# Measurements taken from patent US20260028341A1, “IMIDAZOTRIAZINE DERIVATIVES AS IL-17 MODULATORS” (UCB BIOPHARMA SRL, priority 2022, published 2026).
# Target: T1, IL-17A (Homo sapiens, UniProt Q16552)
# T1 sequence (Q16552 24-155): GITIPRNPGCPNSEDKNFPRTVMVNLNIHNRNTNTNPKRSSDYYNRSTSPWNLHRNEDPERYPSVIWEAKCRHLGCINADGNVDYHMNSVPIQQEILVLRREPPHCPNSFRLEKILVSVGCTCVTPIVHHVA
# Test: Inhibition of IL-17A induced IL-6 release from dermal fibroblast cell line (HDF cell line assay)
# Assay type: cell-based
# Conditions: HDF cells stimulated with IL-17A (50 pM) plus TNF-α (25 pM); IL-6 release measured by HTRF
# Source text: Inhibition of IL-17A Induced IL-6 Release from Dermal Fibroblast Cell Line
# The purpose of this assay is to test the neutralising ability to IL-17 proteins, in a human primary cell system. Stimulation of normal human dermal fibroblasts (HDF) with IL-17 alone produces only a very weak signal but in combination with certain other cytokines, such as TNFα, a synergistic effect can be seen in the production of inflammatory cytokines, i.e. IL-6.
# HDFs were stimulated with IL-17A (50 pM) in combination with TNF-α (25 pM). The resultant IL-6 response was then measured using a homogenous time-resolved FRET kit from Cisbio. The kit utilises two monoclonal antibodies, one labelled with Eu-Cryptate (Donor) and the second with d2 or XL665 (Acceptor). The intensity of the signal is proportional to the concentration of IL-6 present in the sample (Ratio is calculated by 665/620×104).
# The ability of a compound to inhibit IL-17 induced IL-6 release from human dermal fibroblasts is measured in this assay.
# HDF cells (Sigma #106-05n) were cultured in complete media (DMEM+10% FCS+2 mM L-glutamine) and maintained in a tissue culture flask using standard techniques. Cells were harvested from the tissue culture flask on the morning of the assay using TrypLE (Invitrogen #12605036). The TrypLE was neutralised using complete medium (45 mL) and the cells were centrifuged at 300×g for 3 minutes. The cells were re-suspended in complete media (5 mL) counted and adjusted to a concentration of 3.125×10^4 cells/mL before being added to the 384 well assay plate (Corning #3701) at 40 μL per well. The cells were left for a minimum of three hours, at 37° C./5% CO2, to adhere to the plate.
# Compounds were serially diluted in DMSO before receiving an aqueous dilution into a 384 well dilution plate (Greiner #781281), where […] from the titration plate was transferred to 45 μL of complete media and mixed to give a solution containing 10% DMSO.
# Mixtures of TNFα and IL-17 cytokine were prepared in complete media to final concentrations of TNFα 25 pM/IL-17A 50 pM, then 30 μL of the solution was added to a 384 well reagent plate (Greiner #781281).
# 10 μL from the aqueous dilution plate was transferred to the reagent plate containing 30 μL of the diluted cytokines, to give a 2.5% DMSO solution. The compounds were incubated with the cytokine mixtures for 5 h at 37° C. After the incubation, 10 μL was transferred to the assay plate, to give a 0.5% DMSO solution, then incubated for 18-20 h at 37° C./5% CO2.
# From the Cisbio IL-6 FRET kit (Cisbio #62IL6PEB) europium cryptate and Alexa 665 were diluted in reconstitution buffer and mixed 1:1, as per kit insert. To a white low volume 384 well plate (Greiner #784075) were added FRET reagents (10 μL), then supernatant (10 μL) was transferred from the assay plate to Greiner reagent plate. The mixture was incubated at room temperature for 3 h with gentle shaking (<400 rpm) before being read on a Synergy Neo 2 plate reader (Excitation: 330 nm; Emission: […]).
Compound,IC50 [µM],pIC50
"Cc1nonc1C(=O)N[C@H](c1cn2ncc(C3(N4C[C@H](C(F)(F)F)NC4=O)CCN(CC(C)(F)F)CC3)nc2n1)C1CCC(F)(F)CC1 (single isomer, unassigned) [Example 15]",0.316,–
"Cc1nonc1C(=O)N[C@H](c1cn2ncc(C3(N4CC(C(F)(F)F)NC4=O)CC(F)(F)C3)nc2n1)C1CCC(F)(F)CC1 (single isomer, unassigned) [Example 1]",0.00631,–
"Cc1nonc1C(=O)N[C@H](c1cn2ncc(C3(N4C[C@@H](C(F)(F)F)NC4=O)CCN(C)CC3)nc2n1)C1CCC(F)(F)CC1 (single isomer, unassigned) [Example 18]",0.01,–
"Cc1nonc1C(=O)N[C@H](c1cn2ncc(C3(N4C[C@@H](C(F)(F)F)NC4=O)CC3)nc2n1)C1CCC(F)(F)CC1 (single isomer, unassigned) [Example 3]",0.631,–
"Cc1nonc1C(=O)N[C@H](c1cn2ncc(C3(N4C[C@H](C(F)(F)F)NC4=O)CCOCC3)nc2n1)C1CCC(F)(F)CC1 (single isomer, unassigned) [Example 5]",2,–
"Cc1nonc1C(=O)N[C@H](c1cn2ncc([C@@]3(N4C[C@H](C(F)(F)F)NC4=O)CCOC3)nc2n1)C1CCC(F)(F)CC1 (single isomer, unassigned) [Example 13]",7.94,–
"N—[(S)-(4,4-Difluorocyclohexyl)(3-{(3S)-3-f[(4S)-2-oxo-4-(trifluoromethyl)imidazolidin-1-yl]tetrahydrofuran-3-yl}imidazo[1,2-b][1,2,4]triazin-6-yl)methyl]-4-methyl-1,2,5-oxadiazole-3-carboxamide [Example 11]",–,8.0
"Cc1nonc1C(=O)N[C@H](c1cn2ncc(C3(N4C[C@H](C(F)(F)F)NC4=O)CC(F)(F)C3)nc2n1)C1CCC(F)(F)CC1 (single isomer, unassigned) [Example 2]",1,–
"Cc1nonc1C(=O)N[C@H](c1cn2ncc(C3(N4C[C@@H](C(F)(F)F)NC4=O)CCN(CC(C)(F)F)CC3)nc2n1)C1CCC(F)(F)CC1 (single isomer, unassigned) [Example 14]",0.00398,–
"Cc1nonc1C(=O)N[C@H](c1cn2ncc(C3(N4C[C@@H](C(F)(F)F)NC4=O)CCOCC3)nc2n1)C1CCC(F)(F)CC1 (single isomer, unassigned) [Example 4]",0.00398,–
"N—[(S)-(4,4-Difluorocyclohexyl)(3-{(3R)-3-[(4R)-2-oxo-4-(trifluoromethyl)imidazolidin-1-yl]tetrahydrofuran-3-yl}imidazo[1,2-b][1,2,4]triazin-6-yl)methyl]-4-methyl-1,2,5-oxadiazole-3-carboxamide [Example 12]",–,6.2
"Cc1nonc1C(=O)N[C@H](c1cn2ncc(C3(N4CC(C(F)(F)F)NC4=O)CCNCC3)nc2n1)C1CCC(F)(F)CC1 (stereo partly drawn) [Example 7, N—[(S)-(4,4-Difluorocyclohexyl)(3-{4-[2-oxo-4-(trifluoromethyl)imidazolidin-1-yl]-piperidin-4-yl}imidazo[1,2-b][1,2,4]triazin-6-yl)methyl]-4-methyl-1,2,5-oxadiazole-3-carboxamide]",0.0316,–
"N—[(S)-(4,4-Difluorocyclohexyl)(3-{(3R)-3-[(4S)-2-oxo-4-(trifluoromethyl)imidazolidin-1-yl]tetrahydrofuran-3-yl}imidazo[1,2-b][1,2,4]triazin-6-yl)methyl]-4-methyl-1,2,5-oxadiazole-3-carboxamide [Example 10]",–,7.2
"N—[(S)-(4,4-Difluorocyclohexyl)(3-{3-[(4R)-2-oxo-4-(trifluoromethyl)imidazolidin-1-yl]-oxetan-3-yl}imidazo[1,2-b][1,2,4]triazin-6-yl)methyl]-4-methyl-1,2,5-oxadiazole-3-carboxamide [Example 9]",–,5.0
"Cc1nonc1C(=O)N[C@H](c1cn2ncc(C3(N4C[C@H](C(F)(F)F)NC4=O)CCN(C)CC3)nc2n1)C1CCC(F)(F)CC1 (single isomer, unassigned) [Example 19]",0.2,–
"Cc1nonc1C(=O)N[C@H](c1cn2ncc(C3(N4C[C@H](C(F)(F)F)NC4=O)CCN(CC(C)(C)F)CC3)nc2n1)C1CCC(F)(F)CC1 (single isomer, unassigned) [Example 17]",0.251,–
"Cc1nonc1C(=O)N[C@H](c1cn2ncc(C3(N4C[C@@H](C(F)(F)F)NC4=O)CCN(CC(C)(C)F)CC3)nc2n1)C1CCC(F)(F)CC1 (single isomer, unassigned) [Example 16]",0.00398,–
"N—[(S)-(4,4-Difluorocyclohexyl)(3-{3-[(4S)-2-oxo-4-(trifluoromethyl)imidazolidin-1-yl]-oxetan-3-yl}imidazo[1,2-b][1,2,4]triazin-6-yl)methyl]-4-methyl-1,2,5-oxadiazole-3-carboxamide [Example 8]",–,7.5
"Cc1nonc1C(=O)N[C@H](c1cn2ncc(C3(N4CC(C(F)(F)F)NC4=O)CCN(C(=O)OC(C)(C)C)CC3)nc2n1)C1CCC(F)(F)CC1 (stereo partly drawn) [Example 6, tert-Butyl 4-(6-{(S)-(4,4-difluorocyclohexyl)[(4-methyl-1,2,5-oxadiazole-3-carbonyl)-amino]methyl}imidazo[1,2-b][1,2,4]triazin-3-yl)-4-[2-oxo-4-(trifluoromethyl)-imidazolidin-1-yl]piperidine-1-carboxylate]",0.00794,–
